#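 1) Cells in 96-well plates. 2) Compound, 48 h, 5 concentrations. 3) Linear interpolation between surrounding doses. 4) Unreached endpoint = highest concentration. GI50 is the concentration that inhibits growth by half. TGI denotes the concentration required for complete inhibition of growth.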
# Legend:
# Test in all cases: NCI anticancer screen, dose series, 48 h
# PC-3 prostate = tested on: PC-3 prostate
# HOP-92 NSCLC = tested on: HOP-92 NSCLC
# HCT-116 colon = tested on: HCT-116 colon
# HOP-62 NSCLC = tested on: HOP-62 NSCLC
# SNB-19 CNS = tested on: SNB-19 CNS
# A498 renal = tested on: A498 renal
# BT-549 breast = tested on: BT-549 breast
# UACC-257 melanoma = tested on: UACC-257 melanoma
Compound,TGI (PC-3 prostate) [µM],TGI (HOP-92 NSCLC) [µM],TGI (HCT-116 colon) [µM],TGI (HOP-62 NSCLC) [µM],TGI (SNB-19 CNS) [µM],TGI (A498 renal) [µM],TGI (BT-549 breast) [µM],TGI (UACC-257 melanoma) [µM],GI50 (HOP-92 NSCLC) [µM],GI50 (HCT-116 colon) [µM],GI50 (HOP-62 NSCLC) [µM],GI50 (SNB-19 CNS) [µM],GI50 (A498 renal) [µM],GI50 (BT-549 breast) [µM],GI50 (UACC-257 melanoma) [µM]
CC1(C2(C)OC(=O)c3ccccc32)OC(=O)c2ccccc21 (stereo not given),> 100,> 100,> 100,> 100,> 100,> 100,> 100,> 100,–,–,–,–,–,–,–
CN(C)CCNc1ccc2c(=O)n(CCN(C)C)c(=O)n3c4ccc([N+](=O)[O-])cc4c(=O)c1c23,2.43,3.33,1.24,3.85,4.51,5.55,2.66,4.42,–,–,–,–,–,–,–
COc1ccc(C2SCC(=O)N2c2ccc(-n3c(-c4ccccc4)nc4ccccc4c3=O)cc2)cc1OC (stereo not given),> 100,–,> 100,> 100,> 100,> 100,> 100,> 100,–,–,–,–,–,–,–
O=C1C(/C=C/c2ccc(Cl)cc2)=NNC2N1N=C1NC(=O)C3(NN12)c1ccccc1-c1ccccc13 (stereo not given),> 100,> 100,> 100,> 100,> 100,> 100,> 100,> 100,–,–,–,–,–,–,–
CCCCn1c(C)c(C(=O)OCC)s/c1=N/Nc1nc2ccccc2nc1-c1ccccc1,> 100,> 100,> 100,83.5,> 100,> 100,> 100,> 100,–,–,–,–,–,–,–
COc1ccc2nc3ccc(OC)cc3c(S(=O)(=O)Cc3ccc([N+](=O)[O-])cc3)c2c1,> 100,> 100,> 100,> 100,> 100,> 100,–,> 100,–,–,–,–,–,–,–
CC(=O)OCC1OC(n2c3c(c(-c4ccco4)c(C#N)c2=S)CCC3)C(OC(C)=O)C(OC(C)=O)C1OC(C)=O (stereo not given),> 100,69,> 100,> 100,> 100,–,> 100,> 100,–,–,–,–,–,–,–
O=c1[nH]c(Nc2cccc(C(F)(F)F)c2)nc2nc[nH]c12,> 100,> 100,> 100,> 100,> 100,–,–,> 100,–,–,–,–,–,–,–
CCCCCNc1nonc1N,> 100,> 100,> 100,> 100,> 100,> 100,–,> 100,–,–,–,–,–,–,–
O=c1[nH]c(=O)n(C2CC(O)C(CO)O2)cc1OCCCc1ccccc1 (stereo not given),> 100,–,> 100,> 100,> 100,–,> 100,> 100,–,–,–,–,–,–,–
Cc1ccc(-c2c(C#N)c(S)n(NS(=O)(=O)c3ccc(C)cc3)c(=O)c2C#N)cc1,> 100,> 100,90.9,–,52.1,> 100,47.8,> 100,–,–,–,–,–,–,–
Nc1c(-c2nc3ccccc3s2)c2ccc([N+](=O)[O-])cc2c(=O)n1-c1cccc(C(=O)O)c1,> 100,72.9,45.1,–,52,–,64.3,61.9,–,–,–,–,–,–,–
COCC1CCCN1c1ccc(/C=C(/C#N)C(N)=S)cc1 (stereo not given),–,89.2,> 100,> 100,> 100,> 100,> 100,> 100,8.32,> 100,> 100,> 100,> 100,> 100,> 100
COC(=O)C1(Cc2ccc3c(c2)CCC3)Cc2ccc3c(c2C1O)CCC3 (stereo not given),32.3,21.9,28.1,28,–,25.1,29.5,26.1,–,–,–,–,–,–,–
COc1cc(-c2oc3c(OC)c(O)c(OC)c(O)c3c(=O)c2OC)cc(O)c1OC,> 100,> 100,> 100,> 100,> 100,75.4,–,> 100,–,–,–,–,–,–,–
Cc1cccc2c1Oc1cc(Cl)ccc1C2NC(=O)CCN1CCN(CCO)CC1 (stereo not given),28.1,22.8,34.6,32.9,72,–,37.5,33.7,–,–,–,–,–,–,–
CC(C)C1(C)N=C(C(F)(F)F)c2cc(C(=O)C(F)(F)F)c3ccccc3c2N1 (stereo not given),6.75,–,11.8,18.5,16.6,28.7,10.7,19.5,–,–,–,–,–,–,–
CCc1n[nH]c(=O)n1/N=C/c1ccccc1Cl,–,> 100,> 100,> 100,> 100,> 100,> 100,> 100,–,–,–,–,–,–,–
CC(OC(=O)NCn1cc(-c2ccccc2)nn1)c1ccccc1 (stereo not given),5.23,> 100,> 100,> 100,> 100,–,> 100,> 100,–,–,–,–,–,–,–
O=C(/C=C/c1ccc(Cl)cc1)Oc1ccc(/C=C2\CCCCC2=O)cc1,> 100,> 100,> 100,> 100,–,> 100,–,> 100,–,–,–,–,–,–,–
O=C1CCC[C@]2(CCC[C@@H](O)C2)N1,> 100,–,> 100,> 100,> 100,–,> 100,> 100,–,–,–,–,–,–,–
CCCc1cc(=O)oc2c3c(c4c(c12)OC(C)(C)C=C4)O[C@@H](C)[C@H](C)C3=O,35.4,–,24.2,35.5,37.5,29.9,29.6,37.3,–,–,–,–,–,–,–
CC1(C)CC(=O)C2=C(C1)c1c(ccc3ccccc13)NC2c1cn(Cc2ccc(Cl)cc2)c2ccccc12 (stereo not given),> 100,> 100,> 100,> 100,> 100,–,> 100,> 100,–,–,–,–,–,–,–
O=c1oc2ccccc2c(O)c1C(c1ccco1)c1c(O)c2ccccc2oc1=O,> 100,> 100,> 100,> 100,> 100,> 100,–,63.4,–,–,–,–,–,–,–
CC1(C)N=C(C(N)=O)c2ncn(-c3ccccc3)c2N1,> 100,–,> 100,> 100,> 100,> 100,–,> 100,–,–,–,–,–,–,–

# Source: PubChem BioAssay (NCI)
